Key:
Assay type in all cases: functional
Settings in all cases: read-out: IZ
Staphylococcus aureus [1] = experiment: Antibacterial activity against Staphylococcus aureus ATCC 25923 at 50 ug/disk by agar diffusion assay
Bacillus subtilis [2] = experiment: Antibacterial activity against Bacillus subtilis ATCC 6633 at 50 ug/disk by agar diffusion assay
Staphylococcus aureus [3] = experiment: Antibacterial activity against Staphylococcus aureus ATCC 25923 at 100 ug/disk by agar diffusion assay
Bacillus subtilis [4] = experiment: Antibacterial activity against Bacillus subtilis ATCC 6633 at 100 ug/disk by agar diffusion assay

| Structure (SMILES) | zone of inhibition at 50 µg/disc (Staphylococcus aureus [1]) [mm] | zone of inhibition at 50 µg/disc (Bacillus subtilis [2]) [mm] | zone of inhibition at 100 µg/disc (Staphylococcus aureus [3]) [mm] | zone of inhibition at 100 µg/disc (Bacillus subtilis [4]) [mm] |
| --- | --- | --- | --- | --- |
| C[C@@H]1CCC/C=C/C=C/[C@H](O)C[C@@H](O)C/C=C\C=C\[C@@H](OC(=O)CCC(=O)O)C/C=C/C=C\C(=O)O1 [7-O-SUCCINYL MACROLACTIN A] | 24 | 10 |  |  |
| C[C@@H]1CCC/C=C/CCC(=O)C[C@@H](O)C/C=C\C=C\[C@@H](OC(=O)CCC(=O)O)C/C=C/C=C\C(=O)O1 |  |  | 8 | 9 |
| C[C@@H]1CCC/C=C/CCC(=O)C[C@@H](O)C/C=C\C=C\[C@@H](O)C/C=C/C=C\C(=O)O1 [MACROLACTIN F] |  |  | 28 | 8 |
